Here are results for nine compounds from US11559538B2, “Substituted 1,2-oxaborolan-2-ols as PDE4 inhibitors” (Pfizer Inc., priority 2018, dated 2023).

The subject of one data set is IL-13. Nature of the data set: Cytokine assay: IL-13 release from PHA-L stimulated human PBMCs. The following applies: Homo sapiens, PBMC, read-out: IL13 IC50. The format is cell-based. In a few lines: (§1)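 HTRF read-out of cytokine in culture supernatants after 48 h. PBMCs (human, ~250,000/well) received compound (4-fold dilutions, 0.25% DMSO) 10 min before PHA-L at 3.5 μg/mL final. IC50 from four-parameter logistic curve.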

In data set [1] the target is PDE4B (aa 152-484, Uniprot ID Q07343) (Homo sapiens (Human), UniProt Q07343). Nature of the data set: PDE4 SPA assay (scintillation proximity assay). The format is biochemical. The settings on record: read-out: PDE4B2 IC50. A digest of the protocol:
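Scintillation proximity read-out after a 30 min room-temperature reaction of ~81.6 pM PDE4B catalytic fragment (aa 152-484) with 1 μM tritiated/unlabeled cAMP, pH 7.5 Tris buffer with MgCl2 and Brij 35. Compound given ~10 min beforehand, 4-fold dilutions, ~2% DMSO; IC50 from four-parameter logistic curve.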
(In general: In a scintillation proximity assay essentially only radioactivity close to the scintillant gives light.)

The test system of another data set is IFNγ. Nature of the data set: Cytokine assay: IFNγ release from PHA-L stimulated human PBMCs. The settings on record: Homo sapiens, PBMC. The format is cell-based. A digest of the protocol: as §1
The nature of data set [2]: In-vitro skin permeation study (Franz cell assay). Format: in vitro ADME. The following applies: N=15 (3 skin donors, 5 replicates per donor). The method, then: Topical formulations prepared containing Example 4 that were tested for skin permeability and maximum flux of Example 4 are listed in Table 13.
A higher driving force can be achieved via incorporation into the formulations of additional penetration enhancers such as oleyl alcohol.

The test system of another data set is IL-4. Nature of the data set: Cytokine assay: IL-4 release from PHA-L stimulated human PBMCs. Format: cell-based. The following applies: Homo sapiens, PBMC, read-out: IL4 IC50. In a few lines:
as §1

Setting [3] is: 0.01% Example 4 ointment formulation from Table 13.
The mark [4] stands for this setting: 0.1% Example 4 ointment formulation from Table 13.
[5] abbreviates: 1% Example 4 ointment formulation from Table 13.

PDE4B (aa 152-484, Uniprot ID Q07343), sequence (Q07343 324-656): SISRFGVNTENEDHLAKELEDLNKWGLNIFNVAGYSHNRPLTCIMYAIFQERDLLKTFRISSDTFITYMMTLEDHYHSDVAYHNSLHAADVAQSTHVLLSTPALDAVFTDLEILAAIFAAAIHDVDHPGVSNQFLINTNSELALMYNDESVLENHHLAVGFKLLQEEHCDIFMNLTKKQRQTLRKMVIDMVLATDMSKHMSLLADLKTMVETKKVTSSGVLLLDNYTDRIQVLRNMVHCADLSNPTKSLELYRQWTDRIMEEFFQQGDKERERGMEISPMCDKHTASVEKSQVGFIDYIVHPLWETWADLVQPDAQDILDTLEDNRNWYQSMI

By IC50 is commonly meant the concentration that gives 50% inhibition. Regarding `CCCOc1cc(-c2cncc([C@@H]3COB(O)C3)c2)ccc1OC` [Example 4, (R) 4-(5-(4-methoxy-3-propoxyphenyl)pyridin-3-yl)-1,2-oxaborolan-2-ol], the IC50 in the data set on IL-13 stood at 135 nM; in data set [1] it was 0.5 nM; in the data set on IFNγ, 1.06 nM; in the data set with IL-4, 4.11 nM. Moreover, the figures for the “Mean, Cumulative Amount in 24 hours” value in data set [2] (setting [3]), in data set [2] (setting [4]) and in data set [2] (setting [5]) were 233.0 ng, 1089.9 ng and 3357.7 ng, respectively. Moreover, the “Mean, Max. Flux” value in data set [2] (setting [3]) came out at 20.14 ng/cm^2/hr; in data set [2] (setting [4]), 73.95 ng/cm^2/hr; in data set [2] (setting [5]), 252.28 ng/cm^2/hr.

In the case of `CCOc1cc(-c2cc(C(F)(F)F)cc(C3COB(O)C3)n2)ccc1OC` (stereo not drawn) [Example 220, 4-(6-(3-ethoxy-4-methoxyphenyl)-4-(trifluoromethyl)pyridin-2-yl)-1,2-oxaborolan-2-ol], the IC50 turned out to be 2130 nM in the data set with IL-13, 3.29 nM in data set [1], 2.37 nM in the data set with IFNγ and 540 nM in the data set with IL-4.

Consider `CCOc1cc(C2COB(O)C2)nc(-c2ccc(OC)c(OCC)c2)n1` (stereo not drawn) [Example 222, 4-(6-ethoxy-2-(3-ethoxy-4-methoxyphenyl)pyrimidin-4-yl)-1,2-oxaborolan-2-ol], for which the IC50 in the data set on IL-13 turned out to be 2370 nM; in data set [1] it was 1.14 nM; in the data set on IFNγ, 1.17 nM; in the data set with IL-4, 1.44 nM.

As to `CCCOc1cc(-c2nc(OC)cc(C3COB(O)C3)n2)ccc1OC` (stereo not drawn) [Example 224, 4-(6-methoxy-2-(4-methoxy-3-propoxphenyl)pyrimidin-4-yl)-1,2-oxaborolan-2-ol], the IC50 was determined as 2490 nM in the data set with IL-13, 2.17 nM in data set [1], 8.12 nM in the data set with IFNγ and 8.94 nM in the data set on IL-4.

As to `COc1ccc(-c2cccc(C3COB(O)C3)n2)c(C#N)c1OC1CCCC1` (stereo not drawn) [Example 226, 2-(cyclopentyloxy)-6-(6-(2-hydroxy-1,2-oxaborolan-4-yl)pyridin-2-yl)-3-methoxybenzonitrile], the IC50 was found to be 2520 nM in the data set on IL-13, 8.72 nM in data set [1], 17.8 nM in the data set on IFNγ and 24.7 nM in the data set with IL-4.

On to `COc1ccc(-c2cc(C3=CB(O)OC3)ccn2)cc1OC` [Example 227, 4-(2-(3,4-dimethoxphenyl)pyridin-4-yl)-1,2-oxaborol-2(5H)-ol], for which the IC50 with IL-13 amounted to 2540 nM; in data set [1], 7.94 nM; in the data set on IFNγ, 9.16 nM; in the data set on IL-4 it was 285 nM.

In the case of `CCOc1cc(-c2cncc(C3=CB(O)OC3)c2)ccc1OC` [Example 229, 4-(5-(3-ethoxy-4-methoxyphenyl)pyridin-3-yl)-1,2-oxaborol-2(5H)-ol], the IC50 is 2730 nM in the data set on IL-13, 2.64 nM in data set [1], 2.9 nM with IFNγ and 195 nM in the data set on IL-4.

As to `COc1ccc(-c2cccc(C3COB(O)C3)c2)cc1OC` (stereo not drawn) [Example 232, 4-(3′,4′-dimethoxy-[1,1′-biphenyl]-3-yl)-1,2-oxaborolan-2-ol], the IC50 in the data set with IL-13 worked out at 583 nM; in data set [1] it was 4.65 nM; with IFNγ, 17.9 nM; with IL-4, 197 nM.

On to `CCOc1cc(-c2cccc(C3COB(O)C3)n2)ccc1OC` (stereo not drawn) [Example 233, 4-(6-(3-ethoxy-4-methoxyphenyl)pyridin-2-yl)-1,2-oxaborolan-2-ol], for which the IC50 with IL-13 is 508 nM; in data set [1], 8.74 nM; in the data set on IFNγ, 2.94 nM; in the data set with IL-4 it was 104 nM.
